Starred links: 1 amine or outer side, 2 acyl side, 3 side chain; linkers in the order of their positions; H or OH if unused. Positions of bridges follow the written chain, without caps; N, C: chain ends. Non-standard residues stand in square brackets, D forms with d. Residues, ends and D or L forms follow the SMILES beside them. Groups on a side chain read outwards from the residue. *: point of attachment. Trp(1-CH2CO2Me) = COC(=O)Cn1cc(C[C@H](N)C(=O)O)c2ccccc21; Trp(1-CH2COOH) = N[C@@H](Cc1cn(CC(=O)O)c2ccccc12)C(=O)O; X95 = O=[N+]([O-])c1cccc(NC(=S)*)c1; X1 = S=C(Nc1ccc2c(c1)Cc1ccccc1-2)*; 2Naphthoyl = O=C(c1ccc2ccccc2c1)*; X49 = N#Cc1ccccc1NC(=N)c1ccccc1N*; Hyp = O=C(O)[C@@H]1C[C@@H](O)CN1; X47 = O=C(c1cn2c(n1)sc1ccccc12)*; X3 = S=C(Nc1ccc(Oc2ccccc2)cc1)*; X69 = c1ccc(-c2ccc(N*)cc2)cc1; NMeNle = CCCC[C@H](NC)C(=O)O; X12 = S=C(Nc1ccc2ccccc2c1)*; X85 = S=C(Nc1c(Cl)cccc1Cl)*; 3Abz = Nc1cccc(C(=O)O)c1; NMeA = CN[C@@H](C)C(=O)O; Dab = NCC[C@H](N)C(=O)O; Dap = NC[C@H](N)C(=O)O; X21 = S=C(Nc1ccccn1)*; X89 = O=C(Oc1ccccc1)*; CO = O=C([*:1])[*:2]; NHPh = c1ccc(N*)cc1
What follows are molecules tested against T1, PD-1/PD-L1 (Homo sapiens, UniProt Q9NZQ7) (assay: PD-1/PD-L1 Homogenous Time-Resolved Fluorescence (HTRF) binding assay). Conditions: not given.
T1 construct: TVMV protease site linker (C); made in house; host or cells: HEK293T cells
T1 sequence (Q9NZQ7 18-239): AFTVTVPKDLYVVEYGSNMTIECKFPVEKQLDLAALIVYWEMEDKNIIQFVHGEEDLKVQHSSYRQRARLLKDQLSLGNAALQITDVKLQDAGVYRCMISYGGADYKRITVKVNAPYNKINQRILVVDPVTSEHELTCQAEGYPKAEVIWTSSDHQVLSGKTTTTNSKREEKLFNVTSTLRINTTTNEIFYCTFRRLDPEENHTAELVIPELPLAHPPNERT
How it was run: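 HTRF read-out using europium cryptate anti-Ig (1 nM) and APC anti-His (20 nM) on extracellular-domain fusion proteins in dPBS/0.1% BSA/0.05% Tween-20. Inhibitor first incubated 15 min with 10 nM PD-L1-His, followed by 20 nM PD-1-Ig for another 15 min.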

SMILES | IC50
CCCC[C@H]1C(=O)N(C)[C@@H](CCCC)C(=O)N[C@@H](CC(C)C)C(=O)N[C@H](C(=O)NCC(N)=O)CSCC(=O)N[C@@H](Cc2ccc(O)cc2)C(=O)N(C)[C@@H](C)C(=O)N[C@@H](CC(N)=O)C(=O)N2CCC[C@H]2C(=O)N[C@@H](CNC(=S)Nc2cccc([N+](=O)[O-])c2)C(=O)N[C@@H](CC(C)C)C(=O)N2C[C@H](O)C[C@H]2C(=O)N[C@@H](Cc2c[nH]c3ccccc23)C(=O)N[C@@H](CCNC(=S)Nc2cccc([N+](=O)[O-])c2)C(=O)N[C@@H](Cc2cn(CC(=O)O)c3ccccc23)C(=O)N1C [Example 1036] ({CH2CO}-Y[NMeA]NP[Dap](X95)L[Hyp]W[Dab](X95)[Trp(1-CH2COOH)][NMeNle][NMeNle]LCG-NH2; thioether N-14) | 2.6 nM
CCCC[C@H]1C(=O)N(C)[C@@H](CCCC)C(=O)N[C@@H](CC(C)C)C(=O)N[C@H](C(=O)NCC(N)=O)CSCC(=O)N[C@@H](Cc2ccc(O)cc2)C(=O)N(C)[C@@H](C)C(=O)N[C@@H](CC(N)=O)C(=O)N2CCC[C@H]2C(=O)N[C@@H](CNC(=O)Oc2ccccc2)C(=O)N[C@@H](CC(C)C)C(=O)N2C[C@H](O)C[C@H]2C(=O)N[C@@H](Cc2c[nH]c3ccccc23)C(=O)N[C@@H](CCNC(=O)Oc2ccccc2)C(=O)N[C@@H](Cc2cn(CC(=O)OC)c3ccccc23)C(=O)N1C [Example 1013] ({CH2CO}-Y[NMeA]NP[Dap](X89)L[Hyp]W[Dab](X89)[Trp(1-CH2CO2Me)][NMeNle][NMeNle]LCG-NH2; thioether N-14) | 5.2 nM
CCCC[C@H]1C(=O)N(C)[C@@H](CCCC)C(=O)N[C@@H](CC(C)C)C(=O)N[C@H](C(=O)NCC(N)=O)CSCC(=O)N[C@@H](Cc2ccc(O)cc2)C(=O)N(C)[C@@H](C)C(=O)N[C@@H](CC(N)=O)C(=O)N2CCC[C@H]2C(=O)N[C@@H](CNC(=O)Nc2ccc(-c3ccccc3)cc2)C(=O)N[C@@H](CC(C)C)C(=O)N2C[C@H](O)C[C@H]2C(=O)N[C@@H](Cc2c[nH]c3ccccc23)C(=O)N[C@@H](CCNC(=O)Nc2ccc(-c3ccccc3)cc2)C(=O)N[C@@H](Cc2cn(CC(=O)O)c3ccccc23)C(=O)N1C [Example 1011] ({CH2CO}-Y[NMeA]NP[Dap]([CO-X69])L[Hyp]W[Dab]([CO-X69])[Trp(1-CH2COOH)][NMeNle][NMeNle]LCG-NH2; thioether N-14) | 17 nM

Same assay, conditions: PD-L1-His 10 nM pre-incubated with inhibitor, PD-1-Ig 20 nM; read-out: HTRF IC50

IC50 | SMILES
4.2 nM | CCCC[C@H]1C(=O)N(C)[C@@H](CCCC)C(=O)N[C@@H](CC(C)C)C(=O)N[C@H](C(=O)NCC(N)=O)CSCC(=O)N[C@@H](Cc2ccc(O)cc2)C(=O)N(C)[C@@H](C)C(=O)N[C@@H](CC(N)=O)C(=O)N2CCC[C@H]2C(=O)N[C@@H](CNC(=S)Nc2ccccn2)C(=O)N[C@@H](CC(C)C)C(=O)N2C[C@H](O)C[C@H]2C(=O)N[C@@H](Cc2c[nH]c3ccccc23)C(=O)N[C@@H](CCNC(=S)Nc2ccccn2)C(=O)N[C@@H](Cc2cn(CC(=O)O)c3ccccc23)C(=O)N1C [Example 1021] ({CH2CO}-Y[NMeA]NP[Dap](X21)L[Hyp]W[Dab](X21)[Trp(1-CH2COOH)][NMeNle][NMeNle]LCG-NH2; thioether N-14)
2.4 nM | CCCC[C@H]1C(=O)N(C)[C@@H](CCCC)C(=O)N[C@@H](CC(C)C)C(=O)N[C@H](C(=O)NCC(N)=O)CSCC(=O)N[C@@H](Cc2ccc(O)cc2)C(=O)N(C)[C@@H](C)C(=O)N[C@@H](CC(N)=O)C(=O)N2CCC[C@H]2C(=O)N[C@@H](CNC(=S)Nc2c(Cl)cccc2Cl)C(=O)N[C@@H](CC(C)C)C(=O)N2C[C@H](O)C[C@H]2C(=O)N[C@@H](Cc2c[nH]c3ccccc23)C(=O)N[C@@H](CCN)C(=O)N[C@@H](Cc2cn(CC(=O)O)c3ccccc23)C(=O)N1C [Example 1038] ({CH2CO}-Y[NMeA]NP[Dap](X85)L[Hyp]W[Dab][Trp(1-CH2COOH)][NMeNle][NMeNle]LCG-NH2; thioether N-14)
4.9 nM | CCCC[C@H]1C(=O)N(C)[C@@H](CCCC)C(=O)N[C@@H](CC(C)C)C(=O)N[C@H](C(=O)NCC(N)=O)CSCC(=O)N[C@@H](Cc2ccc(O)cc2)C(=O)N(C)[C@@H](C)C(=O)N[C@@H](CC(N)=O)C(=O)N2CCC[C@H]2C(=O)N[C@@H](CNC(=S)Nc2ccc3ccccc3c2)C(=O)N[C@@H](CC(C)C)C(=O)N2C[C@H](O)C[C@H]2C(=O)N[C@@H](Cc2c[nH]c3ccccc23)C(=O)N[C@@H](CCNC(=S)Nc2ccc3ccccc3c2)C(=O)N[C@@H](Cc2cn(CC(=O)O)c3ccccc23)C(=O)N1C [Example 3014] ({CH2CO}-Y[NMeA]NP[Dap](X12)L[Hyp]W[Dab](X12)[Trp(1-CH2COOH)][NMeNle][NMeNle]LCG-NH2; thioether N-14)
3.4 nM | CCCC[C@H]1C(=O)N(C)[C@@H](CCCC)C(=O)N[C@@H](CC(C)C)C(=O)N[C@H](C(=O)NCC(N)=O)CSCC(=O)N[C@@H](Cc2ccc(O)cc2)C(=O)N(C)[C@@H](C)C(=O)N[C@@H](CC(N)=O)C(=O)N2CCC[C@H]2C(=O)N[C@@H](CNC(=S)Nc2ccc(Oc3ccccc3)cc2)C(=O)N[C@@H](CC(C)C)C(=O)N2C[C@H](O)C[C@H]2C(=O)N[C@@H](Cc2c[nH]c3ccccc23)C(=O)N[C@@H](CCNC(=S)Nc2ccc(Oc3ccccc3)cc2)C(=O)N[C@@H](Cc2cn(CC(=O)O)c3ccccc23)C(=O)N1C [Example 1080] ({CH2CO}-Y[NMeA]NP[Dap](X3)L[Hyp]W[Dab](X3)[Trp(1-CH2COOH)][NMeNle][NMeNle]LCG-NH2; thioether N-14)
3.7 nM | CCCC[C@H]1C(=O)N(C)[C@@H](CCCC)C(=O)N[C@@H](CC(C)C)C(=O)N[C@H](C(=O)NCC(N)=O)CSCC(=O)N[C@@H](Cc2ccc(O)cc2)C(=O)N(C)[C@@H](C)C(=O)N[C@@H](CC(N)=O)C(=O)N2CCC[C@H]2C(=O)N[C@@H](CNC(=S)Nc2ccc3c(c2)Cc2ccccc2-3)C(=O)N[C@@H](CC(C)C)C(=O)N2C[C@H](O)C[C@H]2C(=O)N[C@@H](Cc2c[nH]c3ccccc23)C(=O)N[C@@H](CCN)C(=O)N[C@@H](Cc2cn(CC(=O)O)c3ccccc23)C(=O)N1C [Example 2010] ({CH2CO}-Y[NMeA]NP[Dap](X1)L[Hyp]W[Dab][Trp(1-CH2COOH)][NMeNle][NMeNle]LCG-NH2; thioether N-14)
5.7 nM | CCCC[C@H]1C(=O)N(C)[C@@H](CCCC)C(=O)N[C@@H](CC(C)C)C(=O)N[C@H](C(=O)NCC(N)=O)CSCC(=O)N[C@@H](Cc2ccc(O)cc2)C(=O)N(C)[C@@H](C)C(=O)N[C@@H](CC(N)=O)C(=O)N2CCC[C@H]2C(=O)N[C@@H](CNC(=O)Nc2ccccc2C(=N)Nc2ccccc2C#N)C(=O)N[C@@H](CC(C)C)C(=O)N2C[C@H](O)C[C@H]2C(=O)N[C@@H](Cc2c[nH]c3ccccc23)C(=O)N[C@@H](CCN)C(=O)N[C@@H](Cc2cn(CC(=O)O)c3ccccc23)C(=O)N1C [Example 1097] ({CH2CO}-Y[NMeA]NP[Dap]([CO-X49])L[Hyp]W[Dab][Trp(1-CH2COOH)][NMeNle][NMeNle]LCG-NH2; thioether N-14)

Continued, molecule first:

SMILES | IC50
CCCC[C@H]1C(=O)N(C)[C@@H](CCCC)C(=O)N[C@@H](CC(C)C)C(=O)N[C@H](C(=O)NCC(N)=O)CSCC(=O)N[C@@H](Cc2ccc(O)cc2)C(=O)N(C)[C@@H](C)C(=O)N[C@@H](CC(N)=O)C(=O)N2CCC[C@H]2C(=O)N[C@@H](CNC(=O)c2ccc3ccccc3c2)C(=O)N[C@@H](CC(C)C)C(=O)N2C[C@H](O)C[C@H]2C(=O)N[C@@H](Cc2c[nH]c3ccccc23)C(=O)N[C@@H](CCNC(=O)c2ccc3ccccc3c2)C(=O)N[C@@H](Cc2cn(CC(=O)OC)c3ccccc23)C(=O)N1C [Example 3009] ({CH2CO}-Y[NMeA]NP[Dap](2Naphthoyl)L[Hyp]W[Dab](2Naphthoyl)[Trp(1-CH2CO2Me)][NMeNle][NMeNle]LCG-NH2; thioether N-14) | 9 nM
CCCC[C@H]1C(=O)N(C)[C@@H](CCCC)C(=O)N[C@@H](CC(C)C)C(=O)N[C@H](C(=O)NCC(N)=O)CSCC(=O)N[C@@H](Cc2ccc(O)cc2)C(=O)N(C)[C@@H](C)C(=O)N[C@@H](CC(N)=O)C(=O)N2CCC[C@H]2C(=O)N[C@@H](CNC(=O)Nc2cccc(C(=O)OCC)c2)C(=O)N[C@@H](CC(C)C)C(=O)N2C[C@H](O)C[C@H]2C(=O)N[C@@H](Cc2c[nH]c3ccccc23)C(=O)N[C@@H](CCNC(=O)Nc2cccc(C(=O)OCC)c2)C(=O)N[C@@H](Cc2cn(CC(=O)O)c3ccccc23)C(=O)N1C [Example 1100] ({CH2CO}-Y[NMeA]NP[Dap]([CO-3Abz-OEt])L[Hyp]W[Dab]([CO-3Abz-OEt])[Trp(1-CH2COOH)][NMeNle][NMeNle]LCG-NH2; thioether N-14) | 18 nM
CCCC[C@H]1C(=O)N(C)[C@@H](CCCC)C(=O)N[C@@H](CC(C)C)C(=O)N[C@H](C(=O)NCC(N)=O)CSCC(=O)N[C@@H](Cc2ccc(O)cc2)C(=O)N(C)[C@@H](C)C(=O)N[C@@H](CC(N)=O)C(=O)N2CCC[C@H]2C(=O)N[C@@H](CNC(=O)c2cn3c(n2)sc2ccccc23)C(=O)N[C@@H](CC(C)C)C(=O)N2C[C@H](O)C[C@H]2C(=O)N[C@@H](Cc2c[nH]c3ccccc23)C(=O)N[C@@H](CCNC(=O)c2cn3c(n2)sc2ccccc23)C(=O)N[C@@H](Cc2cn(CC(=O)OC)c3ccccc23)C(=O)N1C [Example 2001] ({CH2CO}-Y[NMeA]NP[Dap](X47)L[Hyp]W[Dab](X47)[Trp(1-CH2CO2Me)][NMeNle][NMeNle]LCG-NH2; thioether N-14) | 184 nM
CCCC[C@H]1C(=O)N(C)[C@@H](CCCC)C(=O)N[C@@H](CC(C)C)C(=O)N[C@H](C(=O)NCC(N)=O)CSCC(=O)N[C@@H](Cc2ccc(O)cc2)C(=O)N(C)[C@@H](C)C(=O)N[C@@H](CC(N)=O)C(=O)N2CCC[C@H]2C(=O)N[C@@H](CNC(=O)Nc2ccccc2)C(=O)N[C@@H](CC(C)C)C(=O)N2C[C@H](O)C[C@H]2C(=O)N[C@@H](Cc2c[nH]c3ccccc23)C(=O)N[C@@H](CCN)C(=O)N[C@@H](Cc2cn(CC(=O)O)c3ccccc23)C(=O)N1C [Example 1056] ({CH2CO}-Y[NMeA]NP[Dap]([CO-NHPh])L[Hyp]W[Dab][Trp(1-CH2COOH)][NMeNle][NMeNle]LCG-NH2; thioether N-14) | 3.1 nM

From patent US20220389061A1, “IMMUNOMODULATORS” (priority 2019, published 2022)
